{
  "source": "patent US8158630B2",
  "about": "“Application of 2,5 -dihydroxymethyl-3,6-dimethyl pyrazine and its derivates in pharmacy” (Nanjing University of Chinese Medicine, priority 2010, dated 2012)",
  "key": {"isolated hearts of rats": {"tested_on": "isolated hearts of rats", "experiment": "Effects on the cardiac contractility of isolated hearts of rats (Langendorff perfusion)", "design": "species or system rat", "settings": "0.1 mmol/L; for heart dysrhythmia / +dp/dtmax (maximum value of left ventricular pressure increase) / Heart rate / LVEDP (left ventricular diastolic pressure) / LVSP (left ventricular systolic pressure) / −dp/dtmax (maximum value of left ventricular pressure decrease): isolated rat heart; for +dp/dtmax (maximum value of left ventricular pressure increase) / Heart rate / LVEDP (left ventricular diastolic pressure) / LVSP (left ventricular systolic pressure) / −dp/dtmax (maximum value of left ventricular pressure decrease): after administration", "description": "Intraperitoneal injection of 1.2 g/kg urethane is carried out on rats and the hearts are collected. After the hearts are rinsed and cut in 100% oxygen saturated physiological saline at 0° C., they are connected to modified Langendorff heart perfusion equipments to couduct retrogressive perfusion via the aorta. The perfusate (in mmol/L) is NaCl 117, KCl 5.7, CaCl2 1.8, NaHCO3 4.4, NaH2PO4 1.5, MgCl2 1.7, HEPES 20, Glucose 11, Creatine 10, Taurine 20, and NaOH is used to adjust the pH value to 7.3. The probe of the pressure receptor is inserted into the left ventricle via the left auricle, and BioAmp amplifier is used to record the left ventricular pressure, and the electrocardiogram is measured at the same time."}, "normal rats": {"tested_on": "normal rats", "experiment": "Effects on heart functions and hemodynamics of normal rats, intravenous administration", "format": "in vivo, rat", "settings": "for LVEDP / LVSP / +dp/dtmax / −dp/dtmax: normal rats, within one minute after administration, n = 10; for +dp/dtmax / −dp/dtmax: in mmHg/s (unit assumed)", "description": "After the rats are paralysed with 20% ethyl urethane (urethane) (1 g/kg) and fixed on a thermostatical operation table on their backs, needle-electrodes for electrocardiogram are subcutaneously inserted from their extremities and the lead II […] (ECG) and the heart rate (HR) are measured by inputting into the multiplying channel device. The right common carotid artery is isolated from the inner side of sternocleidomastoid muscle after the […] and temperature (37° C.) become stable, and the right common carotid artery is ligated at its head end and left ventricular cannulation is carried out. It is connected with the polygraph via a pressure transducer to measure the heart function indexes of left ventricle, in the meantime, the right femoral vein is isolated and venous cannulation is carried out for the intravenous administration, and the non-inserted end is connected to a syringe that is filled with 40 IU/mL heparin physiological saline, the multi-channel physiological signal acquisition and processing system is used to record the data. After the measured indexes become stable, the data at one minute before the drug administration are recorded as the blank control, and Liguzinediol is dissolved in physiological saline and then use 5, 10 and 20 mg/kg respectively as the low, mediate and high dosage groups, and the results within one minute after the intravenous administration are shown in Table 2. The heart rate aberration that is induced by Liguzinediol is not found in the three dosage groups after administration."}},
  "data": [
    {"smiles": "CC(=O)OCc1nc(C)c(COC(C)=O)nc1C", "note": "[Compound 1, 2,5-diacetoxymethyl-3,6-dimethyl pyrazine]", "values": [
      {"measurement": "cardiac contractility of isolated hearts of rats", "setting": "isolated hearts of rats", "value": "significantly increase"},
      {"measurement": "heart dysrhythmia", "setting": "isolated hearts of rats", "value": "no heart dysrhythmia is found"},
      {"measurement": "+dp/dtmax (maximum value of left ventricular pressure increase)", "setting": "isolated hearts of rats", "value": "831.9 ± 268.2"},
      {"measurement": "Heart rate", "setting": "isolated hearts of rats", "value": "191.6 ± 58.0^Δ"},
      {"measurement": "LVEDP (left ventricular diastolic pressure)", "setting": "isolated hearts of rats", "value": "−14.4 ± 7.2"},
      {"measurement": "LVSP (left ventricular systolic pressure)", "setting": "isolated hearts of rats", "value": "26.1 ± 12.5"},
      {"measurement": "−dp/dtmax (maximum value of left ventricular pressure decrease)", "setting": "isolated hearts of rats", "value": "−884.9 ± 347.0"}
    ]},
    {"smiles": "Cc1nc(CO)c(C)nc1CO", "note": "[Compound 2, 2,5-dihydroxymethyl-3,6-dimethyl pyrazine]", "values": [
      {"measurement": "cardiac contractility of isolated hearts of rats", "setting": "isolated hearts of rats", "value": "significantly increase"},
      {"measurement": "heart dysrhythmia", "setting": "isolated hearts of rats", "value": "no heart dysrhythmia is found"},
      {"measurement": "+dp/dtmax (maximum value of left ventricular pressure increase)", "setting": "isolated hearts of rats", "value": "790.3 ± 251.6"},
      {"measurement": "Heart rate", "setting": "isolated hearts of rats", "value": "154.4 ± 28.8^Δ"},
      {"measurement": "LVEDP (left ventricular diastolic pressure)", "setting": "isolated hearts of rats", "value": "−13.0 ± 2.3"},
      {"measurement": "LVSP (left ventricular systolic pressure)", "setting": "isolated hearts of rats", "value": "26.9 ± 5.9"},
      {"measurement": "−dp/dtmax (maximum value of left ventricular pressure decrease)", "setting": "isolated hearts of rats", "value": "−763.5 ± 188.0"},
      {"measurement": "LVEDP", "setting": "normal rats; 5 mg/kg i.v.", "value": "7.9 ± 6.3"},
      {"measurement": "LVSP", "setting": "normal rats; 5 mg/kg i.v.", "value": "132.7 ± 9.1"},
      {"measurement": "+dp/dtmax", "setting": "normal rats; 5 mg/kg i.v.", "value": "12027 ± 1388"},
      {"measurement": "−dp/dtmax", "setting": "normal rats; 5 mg/kg i.v.", "value": "−10238 ± 1247"},
      {"measurement": "LVEDP", "setting": "normal rats; 10 mg/kg i.v.", "value": "6.9 ± 6.1"},
      {"measurement": "LVSP", "setting": "normal rats; 10 mg/kg i.v.", "value": "135.7 ± 10.9"},
      {"measurement": "+dp/dtmax", "setting": "normal rats; 10 mg/kg i.v.", "value": "11484 ± 1410"},
      {"measurement": "−dp/dtmax", "setting": "normal rats; 10 mg/kg i.v.", "value": "−9667 ± 670"},
      {"measurement": "LVEDP", "setting": "normal rats; 20 mg/kg i.v.", "value": "6.3 ± 4.8"},
      {"measurement": "LVSP", "setting": "normal rats; 20 mg/kg i.v.", "value": "139.7 ± 4.6"},
      {"measurement": "+dp/dtmax", "setting": "normal rats; 20 mg/kg i.v.", "value": "12347 ± 1030"},
      {"measurement": "−dp/dtmax", "setting": "normal rats; 20 mg/kg i.v.", "value": "−9964 ± 1045"},
      {"measurement": "left ventricular contraction and diastolic function of rat heart", "setting": "normal rats; rats, 5, 10 and 20 mg/kg i.v.", "value": "significantly increase the left ventricular contraction and improve the diastolic function"},
      {"measurement": "heart rate aberration", "setting": "normal rats; rats, 5, 10 and 20 mg/kg i.v., after administration", "value": "not found"}
    ]}
  ]
}
